Laboratory results reported in patent US7396837B2, “Antitumoral analogs of lamellarins” (Pharma Mar, S.A.U., priority 2002, dated 2008).
Values belong to the compound of their own block, whether it stands above or below them.

Columns and labels:
A549 = A549 cell line in culture; cited from earlier work
P388 = P388 cell line in culture; cited from earlier work
human topoisomerase I [1] = biological target: T1, human topoisomerase I (Homo sapiens, UniProt P11387); assay: Topoisomerase I DNA relaxation assay (supercoiled plasmid DNA); format: biochemical; settings: for stimulation of DNA cleavage by topoisomerase I / inhibition of topoisomerase I (nicked DNA band) in DNA relaxation assay: supercoiled plasmid DNA, each compound tested at 1 μM, agarose gel with ethidium bromide
T1 sequence (P11387 1-765): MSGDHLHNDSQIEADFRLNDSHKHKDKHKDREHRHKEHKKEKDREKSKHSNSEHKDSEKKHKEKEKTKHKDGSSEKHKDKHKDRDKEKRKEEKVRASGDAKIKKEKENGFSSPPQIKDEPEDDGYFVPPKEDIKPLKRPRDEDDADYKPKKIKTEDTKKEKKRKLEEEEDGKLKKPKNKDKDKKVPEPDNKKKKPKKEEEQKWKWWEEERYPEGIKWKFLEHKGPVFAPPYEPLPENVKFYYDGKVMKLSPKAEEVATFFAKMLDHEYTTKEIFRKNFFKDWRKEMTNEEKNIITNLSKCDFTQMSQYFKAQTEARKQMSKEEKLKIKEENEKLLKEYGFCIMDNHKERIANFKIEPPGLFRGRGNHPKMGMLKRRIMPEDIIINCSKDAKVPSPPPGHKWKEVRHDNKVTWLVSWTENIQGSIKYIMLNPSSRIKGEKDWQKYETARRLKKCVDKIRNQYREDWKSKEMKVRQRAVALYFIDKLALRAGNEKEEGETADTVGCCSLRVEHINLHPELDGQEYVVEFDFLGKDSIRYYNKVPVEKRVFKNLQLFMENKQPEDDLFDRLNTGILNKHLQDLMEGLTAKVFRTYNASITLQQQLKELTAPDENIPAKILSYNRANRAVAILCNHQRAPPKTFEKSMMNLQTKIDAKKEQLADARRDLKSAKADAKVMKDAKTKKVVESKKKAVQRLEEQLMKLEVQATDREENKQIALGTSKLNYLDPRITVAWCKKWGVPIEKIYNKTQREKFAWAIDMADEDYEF
Protocol: (§1) Two assays, based on DNA relaxation and DNA cleavage (Bailly, C. DNA relaxation and cleavage assays to study topoisomerase I inhibitors. Methods Enzymol. 2001, 340, 610-623) were used evaluate the effects of the lamellarin analogs on the catalytic activity of human topoisomerase I.
In the first assay, a supercoiled plasmid DNA was relaxed with topoisomerase I in the absence or presence of the test compounds, each tested at 1 μM. DNA relaxation products were then resolved by gel electrophoresis on agarose gels containing ethidium bromide to stain the DNA.

human topoisomerase I [2] = biological target: T1, human topoisomerase I; assay: Topoisomerase I cleavage of radiolabeled 117-bp DNA fragment; format: biochemical; settings: 117-bp DNA restriction fragment 3' end-labeled, sequencing-type polyacrylamide gels
Source text: as §1
A second assay, based on the cleavage of a radiolabeled DNA substrate by topoisomerase I, was used to confirm that the cationic lamellarin derivatives do effectively function as topoisomerase I poisons. A 117-bp DNA restriction fragment uniquely end-labeled at the 3′ end was subjected to cleavage by topoisomerase I in the presence of the different compounds and the resulting DNA cleavage products were resolved on sequencing-type polyacrylamide gels. The advantage of this assay is to detect the cleavage sites and to locate their positions with nucleotide resolution, providing thus information on the site selectivity of cleavage.

lung cancer cell lines = settings: acting as a Type IV microtubule poison; cited from earlier work
fertilised sea urchin = fertilised sea urchin assay; cited from earlier work

SMILES: COc1ccc(-c2c3n(c4c(=O)oc5cc(O)c(OC)cc5c24)CCc2cc(O)c(OC)cc2-3)cc1O [Lamellarin L, lamellarin L]
cytotoxicity (A549): comparable cytoxicity
cytotoxicity (P388): comparable cytoxicity

SMILES: COc1cc(-c2c3n(c4c(=O)oc5cc(O)c(OC)cc5c24)CCc2c-3cc(OC)c(OC)c2O)ccc1O [Lamellarin K, lamellarin K]
cytotoxicity (A549): comparable cytoxicity
cytotoxicity (P388): comparable cytoxicity

SMILES: COc1cc2c(cc1O)oc(=O)c1c2c(-c2ccc(OC)c(OC)c2)c2n1CCc1c-2cc(OC)c(OC)c1OC [Lamellarin I, lamellarin I]
cytotoxicity (A549): comparable cytoxicity
cytotoxicity (P388): comparable cytoxicity

SMILES: CC[C@@]1(O)C(=O)OCc2c1cc1n(c2=O)Cc2cc3ccccc3nc2-1 [camptothecin, reference compound]
stimulation of DNA cleavage by topoisomerase I / inhibition of topoisomerase I (nicked DNA band) in DNA relaxation assay (human topoisomerase I [1]): strongly promotes DNA cleavage by topoisomerase I
topoisomerase I-mediated DNA cleavage sites / cleavage profile (human topoisomerase I [2]): T^↓G only
topoisomerase I-mediated DNA cleavage sites / cleavage profile (human topoisomerase I [2]; listed as CPT): three sites at nucleotide positions 26, 48 and 81

SMILES: COc1ccc(-c2c3c4cc(OC)c(O)cc4oc(=O)c3n3ccc4cc(O)c(OC)cc4c23)cc1O [Lamellarin N, lamellarin N]
activity in lung cancer cell lines (lung cancer cell lines): exhibit activity in lung cancer cell lines

stimulation of DNA cleavage by topoisomerase I / inhibition of topoisomerase I (nicked DNA band) in DNA relaxation assay (human topoisomerase I [1]): marked inhibition of topoisomerase I
topoisomerase I-mediated DNA cleavage sites / cleavage profile (human topoisomerase I [2]): Cleavage profiles identical to that of 3
SMILES: COc1cc(-c2c3c4cc(OC)c(OC(=O)[C@@H](N)Cc5ccccc5)cc4oc(=O)c3n3ccc4cc(OC(=O)[C@@H](N)Cc5ccccc5)c(OC)cc4c23)ccc1OC(=O)[C@@H](N)Cc1ccccc1 [Compound 25]
potency at inhibiting topoisomerase I relative to the other amino acid derivatives (human topoisomerase I [1]; DNA relaxation assay): significantly less potent than the other amino acid derivatives

SMILES: COc1cc(-c2c3n(c4c(=O)oc5cc(O)c(OC)cc5c24)CCc2c-3cc(OC)c(OC)c2OC)ccc1O [Lamellarin C, lamellarin C]
inhibition of cell division (fertilised sea urchin): inhibition of cell division
